Test results as given in patent US9975907B2, “Pyrimidinones as PI3K inhibitors” (Incyte Corporation, priority 2009, dated 2018).
Where a name gives a salt, the structure may show the parent alone.

Assays:
PI3Kδ (p110δ/p85α) [1] = target: T1, PI3Kδ (p110δ/p85α) (Homo sapiens (Human), UniProt O00329); assay: PI3Kδ Scintillation Proximity Assay (Assay A3); format: biochemical; details: column b, Assay A3 (SPA), 20 μM ATP
Text: [γ-^33P]ATP (10 mCi/mL) was purchased from Perkin-Elmer (Waltham, Mass.). Lipid kinase substrate, D-myo-Phosphatidylinositol 4,5-bisphosphate (PtdIns(4,5)P2)D (+)-sn-1,2-di-O-octanoylglyceryl, 3-O-phospho linked (PIP2), CAS 204858-53-7, was purchased from Echelon Biosciences (Salt Lake City, Utah). PI3Kδ (p110δ/p85α) was purchased from Millipore (Bedford, Mass.). ATP, MgCl2, DTT, EDTA, MOPS and CHAPS were purchased from Sigma-Aldrich (St. Louis, Mo.). Wheat Germ Agglutinin (WGA) YSi SPA Scintillation Beads was purchased from GE healthcare life sciences (Piscataway, N.J.).
The kinase reaction was conducted in polystyrene 384-well matrix white plate from Thermo Fisher Scientific in a final volume of 25 μL. Inhibitors were first diluted serially in DMSO and added to the plate wells before the addition of other reaction components. The final concentration of DMSO in the assay was 0.5%. The PI3K assays were carried out at room temperature in 20 mM MOPS, pH 6.7, 10 mM MgCl2, 5 mM DTT and CHAPS 0.03%. Reactions were initiated by the addition of ATP, the final reaction mixture consisted of 20 μM PIP2, 20 μM ATP, 0.2 μCi [γ-^33P] ATP, 4 nM PI3Kδ. Reactions were incubated for 210 min and terminated by the addition of 40 μL SPA beads suspended in quench buffer: 150 mM potassium phosphate pH 8.0, 20% glycerol. 25 mM EDTA, 400 μM ATP. The final concentration of SPA beads was 1.0 mg/mL. After the plate sealing, plates were shaken overnight at room temperature and centrifuged at 1800 rpm for 10 minutes, the radioactivity of the product was determined by scintillation counting on Topcount (Perkin-Elmer). IC50 determination was performed by fitting the curve of percent control activity versus the log of the inhibitor concentration using the GraphPad Prism 3.0 software.

PI3Kδ (p110δ/p85α) [2] = target: T1, PI3Kδ (p110δ/p85α); assay: AlphaScreen Assay for PI3Kδ (Assay A1); format: biochemical; details: column a, 20 μM ATP
Text: PI3-Kinase luminescent assay kit including lipid kinase substrate, D-myo-phosphatidylinositol 4,5-bisphosphate (PtdIns(4,5)P2)D (+)-sn-1,2-di-O-octanoylglyceryl, 3-O-phospho linked (PIP2), biotinylated I(1,3,4,5)P4, PI(3,4,5)P3 Detector Protein, was purchased from Echelon Biosciences (Salt Lake City, Utah). AlphaScreen™ GST Detection Kit including donor and acceptor beads was purchased from PerkinElmer Life Sciences (Waltham, Mass.). PI3Kδ (p110δ/p85α) was purchased from Millipore (Bedford, Mass.). ATP, MgCb, DTT, EDTA, HEPES and CHAPS were purchased from Sigma-Aldrich (St. Louis, Mo.).
AlphaScreen™ Assay for PI3Kδ
The kinase reaction was conducted in 384-well REMP plate from Thermo Fisher Scientific in a final volume of 40 μL. Inhibitors were first diluted serially in DMSO and added to the plate wells before the addition of other reaction components. The final concentration of DMSO in the assay was 2%. The PI3K assays were carried out at room temperature in 50 mM HEPES, pH 7.4, 5 mM MgCl2, 50 mM NaCl, 5 mM DTT and CHAPS 0.04%. Reactions were initiated by the addition of ATP, the final reaction mixture consisted of 20 μM PIP2, 20 μM ATP, 1.2 nM PI3Kδ were incubated for 20 min. 10 μL of reaction mixture was then transferred to 5 μL 50 nM biotinylated I(1,3,4,5)P4 in quench buffer: 50 mM HEPES pH 7.4, 150 mM NaCl, 10 mM EDTA, 5 mM DTT, 0.1% Tween-20, followed with the addition of 10 μL AlphaScreen™ donor and acceptor beads suspended in quench buffer containing 25 nM PI(3,4,5)P3 detector protein. The final concentration of both donor and acceptor beads is […]. After plate sealing, the plate was incubated in a dark location at room temperature for 2 hours. The activity of the product was determined on Fusion-alpha microplate reader (Perkin-Elmer). IC50 determination was performed by fitting the curve of percent control activity versus the log of the inhibitor concentration using the GraphPad Prism 3.0 software.

[3] = tested on: Pfeiffer cell line (diffuse large B cell lymphoma); assay: Pfeiffer Cell Proliferation Assay; format: cell-based; details: 3-4 days, [3H]-thymidine incorporation
Method: Pfeiffer cell line (diffuse large B cell lymphoma) was purchased from ATCC (Manassas, Va.) and maintained in the culture medium recommended (RPMI and 10% FBS). To measure the anti-proliferation activity of the PI3Kδ submittals, the Pfeiffer cells were plated with the culture medium (2×10^3 cells/well/per 200 μl) into 96-well ultra-low binding plates (Corning, Corning, N.Y.), in the presence or absence of a concentration range of test compounds. After 3-4 days, [^3H]-thymidine (1 μCi/well) (PerkinElmer, Boston, Mass.) in PBS was then added to the cell culture for an additional 12 hrs before the incorporated radioactivity was separated by filtration with water through GF/B filters (Packard Bioscience, Meriden, Conn.) and measured by liquid scintillation counting with a TopCount (Packard Bioscience). See Table 3 for data related to compounds of the invention.

T1 sequence (O00329 whole entry, species assumed): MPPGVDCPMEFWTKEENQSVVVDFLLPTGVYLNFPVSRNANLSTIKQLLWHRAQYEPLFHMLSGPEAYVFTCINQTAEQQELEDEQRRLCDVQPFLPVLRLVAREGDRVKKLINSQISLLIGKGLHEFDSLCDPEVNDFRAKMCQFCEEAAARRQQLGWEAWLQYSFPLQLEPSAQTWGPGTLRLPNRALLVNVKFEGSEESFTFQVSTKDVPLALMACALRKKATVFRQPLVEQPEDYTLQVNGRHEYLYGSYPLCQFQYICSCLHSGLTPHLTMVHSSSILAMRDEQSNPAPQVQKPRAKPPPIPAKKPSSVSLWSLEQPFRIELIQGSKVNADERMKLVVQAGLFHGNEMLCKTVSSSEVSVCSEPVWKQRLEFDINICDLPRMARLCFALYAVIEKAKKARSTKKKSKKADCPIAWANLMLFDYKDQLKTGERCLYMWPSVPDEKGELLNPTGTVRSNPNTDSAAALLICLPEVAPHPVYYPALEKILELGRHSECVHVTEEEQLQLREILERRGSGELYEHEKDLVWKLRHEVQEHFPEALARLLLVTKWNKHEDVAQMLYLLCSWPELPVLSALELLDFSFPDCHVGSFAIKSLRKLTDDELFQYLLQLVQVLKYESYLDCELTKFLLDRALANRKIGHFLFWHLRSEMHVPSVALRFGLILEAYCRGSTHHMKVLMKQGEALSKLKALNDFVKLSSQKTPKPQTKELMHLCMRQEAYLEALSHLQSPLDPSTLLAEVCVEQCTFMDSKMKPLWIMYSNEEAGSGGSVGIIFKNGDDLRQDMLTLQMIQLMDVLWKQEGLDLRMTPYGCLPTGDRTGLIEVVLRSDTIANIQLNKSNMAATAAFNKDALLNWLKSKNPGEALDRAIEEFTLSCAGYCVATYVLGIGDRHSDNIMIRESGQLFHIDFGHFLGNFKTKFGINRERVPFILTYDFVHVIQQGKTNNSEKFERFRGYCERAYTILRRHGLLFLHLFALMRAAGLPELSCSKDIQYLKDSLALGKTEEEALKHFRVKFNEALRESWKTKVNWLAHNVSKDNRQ
T1 sequence (P27986 whole entry partner, species assumed): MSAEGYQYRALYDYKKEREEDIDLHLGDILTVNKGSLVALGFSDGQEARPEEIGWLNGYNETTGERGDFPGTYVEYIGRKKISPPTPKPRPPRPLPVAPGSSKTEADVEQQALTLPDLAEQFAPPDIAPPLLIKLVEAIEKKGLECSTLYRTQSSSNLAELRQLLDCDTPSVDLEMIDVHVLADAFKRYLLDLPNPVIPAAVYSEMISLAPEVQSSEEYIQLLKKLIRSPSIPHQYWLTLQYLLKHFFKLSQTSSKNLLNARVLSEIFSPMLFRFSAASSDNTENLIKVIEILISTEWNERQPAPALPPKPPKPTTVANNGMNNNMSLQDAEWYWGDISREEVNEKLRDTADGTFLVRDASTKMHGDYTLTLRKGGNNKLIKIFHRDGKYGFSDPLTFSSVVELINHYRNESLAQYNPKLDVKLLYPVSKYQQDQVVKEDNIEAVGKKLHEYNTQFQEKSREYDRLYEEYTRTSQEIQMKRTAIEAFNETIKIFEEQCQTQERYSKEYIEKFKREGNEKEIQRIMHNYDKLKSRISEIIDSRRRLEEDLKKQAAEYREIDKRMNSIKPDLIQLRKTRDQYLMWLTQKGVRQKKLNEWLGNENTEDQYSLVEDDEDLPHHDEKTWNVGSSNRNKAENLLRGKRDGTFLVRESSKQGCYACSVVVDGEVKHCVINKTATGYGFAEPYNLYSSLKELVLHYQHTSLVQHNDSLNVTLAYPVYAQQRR

Row | IC50 (PI3Kδ (p110δ/p85α) [1]) | IC50 (PI3Kδ (p110δ/p85α) [2]) | IC50 ([3]; Homo sapiens, Pfeiffer) | IC50 ([3]; trifluoroacetic acid salt) | IC50 [3] | Structure (SMILES)
1 | 0.05 to 0.1 µM | 0.1 to 0.5 µM |  |  |  | CCC(Nc1ncnc2[nH]cnc12)c1nc2cccc(C)n2c(=O)c1-c1cccc(F)c1 (centres unmarked) [Example 4, 3-(3-fluorophenyl)-6-methyl-2-[1-(9H-purin-6-ylamino)propyl]-4H-pyrido[1,2-a]pyrimidin-4-one]
2 | 0.1 to 0.5 µM | 0.1 to 0.5 µM |  |  |  | CCC(Nc1ncnc2[nH]cnc12)c1nc2cccc(C)n2c(=O)c1-c1cncc(F)c1 (centres unmarked) [Example 3, 3-(5-fluoropyridin-3-yl)-6-methyl-2-[1-(9H-purin-6-ylamino)propyl]-4H-pyrido[1,2-a]pyrimidin-4-one]
3 | < 0.05 µM | 0.05 to 0.1 µM |  |  |  | CCC(Nc1ncnc2[nH]cnc12)c1nc2cccc(C)n2c(=O)c1-c1ccccc1 (centres unmarked) [Example 2, 6-methyl-3-phenyl-2-[1-(9H-purin-6-ylamino)propyl]-4H-pyrido[1,2-a]pyrimidin-4-one]
4 | < 0.05 µM |  | < 0.05 µM |  |  | Cc1cccc2nc(C(C)Nc3nc(N)nc4[nH]cnc34)c(-c3cccc(F)c3)c(=O)n12 (centres unmarked) [Example 73, 2-{1-[(2-Amino-9H-purin-6-yl)amino]ethyl}-3-(3-fluorophenyl)-6-methyl-4H-pyrido[1,2-a]pyrimidin-4-one trifluoroacetic acid salt]
5 | 0.05 to 0.1 µM | 0.05 to 0.1 µM |  |  |  | Cc1csc2nc(C(C)Nc3ncnc4[nH]cnc34)c(-c3ccccn3)c(=O)n12 (centres unmarked) [Example 14, 3-methyl-7-[1-(9H-purin-6-ylamino)ethyl]-6-pyridin-2-yl-5H-[1,3]thiazolo[3,2-a]pyrimidin-5-one]
6 | 0.05 to 0.1 µM | 0.1 to 0.5 µM |  |  |  | CCC(Nc1ncnc2[nH]cnc12)c1nc2cccc(C)n2c(=O)c1-c1cc(F)cc(F)c1 (centres unmarked) [Example 5, 3-(3,5-difluorophenyl)-6-methyl-2-[1-(9H-purin-6-ylamino)propyl]-4H-pyrido[1,2-a]pyrimidin-4-one]
7 | 0.1 to 0.5 µM | 0.1 to 0.5 µM |  |  |  | Cc1cccc2nc(C(C)n3cnc4c(N)ncnc43)c(-c3ccccc3)c(=O)n12 (centres unmarked) [Example 1, 2-[1-(6-amino-9H-purin-9-yl)ethyl]-6-methyl-3-phenyl-4H-pyrido[1,2-a]pyrimidin-4-one]
8 | < 0.05 µM |  |  | < 0.05 µM |  | Cc1cccc2nc(C(C)Nc3nc(N)nc4[nH]cnc34)c(-c3cccc(F)c3)c(=O)n12 (single isomer, unassigned) [Example 74, 2-{1-[(2-Amino-9H-purin-6-yl)amino]ethyl}-3-(3-fluorophenyl)-6-methyl-4H-pyrido[1,2-a]pyrimidin-4-one trifluoroacetic acid salt]
9 | 0.05 to 0.1 µM |  | < 0.05 µM |  |  | Cc1cccc2nc(C(C)Nc3ncnc4[nH]cnc34)c(-c3cccc(F)c3)c(=O)n12 (centres unmarked) [Example 70, 3-(3-Fluorophenyl)-6-methyl-2-[1-(9H-purin-6-ylamino)ethyl]-4H-pyrido[1,2-a]pyrimidin-4-one trifluoroacetic acid salt]
10 | 0.05 to 0.1 µM | 0.1 to 0.5 µM |  |  |  | CCC(Nc1ncnc2[nH]cnc12)c1nc2cccc(C)n2c(=O)c1-c1cn[nH]c1 (centres unmarked) [Example 7, 6-methyl-2-[1-(9H-purin-6-ylamino)propyl]-3-(1H-pyrazol-4-yl)-4H-pyrido[1,2-a]pyrimidin-4-one]
11 |  |  |  |  | < 0.05 µM | Cc1csc2nc([C@H](C)Nc3ncnc4[nH]cnc34)c(-c3ccccc3Cl)c(=O)n12 (single isomer, unassigned) [43 Second peak]
12 | 0.1 to 0.5 µM | 0.1 to 0.5 µM |  |  |  | CCC(Nc1ncnc2[nH]cnc12)c1nc2cccc(C)n2c(=O)c1-c1cccnc1F (centres unmarked) [Example 6, 3-(2-fluoropyridin-3-yl)-6-methyl-2-[1-(9H-purin-6-ylamino)propyl]-4H-pyrido[1,2-a]pyrimidin-4-one]
13 |  |  |  |  | < 0.05 µM | Cc1csc2nc([C@H](C)Nc3nc(N)nc4[nH]cnc34)c(-c3ccccc3Cl)c(=O)n12 (single isomer, unassigned) [39 Second peak]
14 | < 0.05 µM | 0.05 to 0.1 µM |  |  |  | Cc1csc2nc(C(C)Nc3ncnc4[nH]cnc34)c(-c3ccccc3)c(=O)n12 (centres unmarked) [Example 8, 3-methyl-6-phenyl-7-[1-(9H-purin-6-ylamino)ethyl]-5H-[1,3]thiazolo[3,2-a]pyrimidin-5-one]
